Measurements: patent US12649750B2, “Macrocyclic compounds, compositions, and methods of using thereof” (Sionna Therapeutics Inc., priority 2022, dated 2026)

Key:
NBD1 = target: T1, NBD1 (Homo sapiens, UniProt P13569); test: Aggregation analysis using differential static light scattering (DSLS), thermal stability of NBD1 (ΔTagg); type: binding; conditions: ΔTagg versus DMSO control, NBD1 0.2 mg/ml
T1 construct: Purified recombinant NBD1 was produced using previously described methods; made in house
Method in brief: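 Purified recombinant NBD1 at 0.2 mg/ml in 50 mM Tris-HCl, 150 mM NaCl, 5 mM MgCl2, 2 mM ATP, 2 mM DTT, pH 7.6, 1% glycerol, with compound, heated 1° C./min to 70° C. under light-scattering monitoring. Tagg taken at curve inflection; ΔTagg is compound Tagg minus mean DMSO-control Tagg, binned A (≤5° C.), B (>5-≤10° C.), C (>10-≤25° C.).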

CFTR = target: T2, CFTR (Homo sapiens, UniProt P13569, DEL508-508); test: TECC24 AUC fold over DMSO @10 μM, CFTR-mediated transepithelial chloride transport in CF-HBE cells; type: cell-based; conditions: test agent AUC divided by DMSO vehicle AUC, primary CF-HBE cells, ΔF508 homozygous donor, 48 hours incubation
T2 construct: Primary human bronchial epithelial cells from a ΔF508 homozygous CF donor; host or cells: primary human bronchial epithelial cells (CF-HBE), ΔF508 homozygous donor
Method in brief: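 ΔF508-homozygous primary bronchial epithelial cells incubated 48 h at 36.5° C with compound (10 μM) in IL-13-containing medium, then TECC24 current-clamp recording in pH 7.4 Hepes saline with benzamil 10 μM, forskolin 10 μM, then CFTR inhibitor-172 20 μM. Equivalent Cl− current AUC between forskolin and inhibitor, expressed as fold over DMSO.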

T1 sequence (P13569 423-646 limits assumed): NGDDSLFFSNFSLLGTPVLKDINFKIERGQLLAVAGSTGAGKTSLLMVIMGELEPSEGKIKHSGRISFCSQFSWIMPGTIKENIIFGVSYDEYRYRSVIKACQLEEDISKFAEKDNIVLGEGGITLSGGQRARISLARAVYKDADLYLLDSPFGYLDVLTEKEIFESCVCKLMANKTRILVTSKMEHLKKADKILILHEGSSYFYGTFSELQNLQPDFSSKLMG
T2 sequence (P13569 with tags, fused parts or gaps DEL508-508): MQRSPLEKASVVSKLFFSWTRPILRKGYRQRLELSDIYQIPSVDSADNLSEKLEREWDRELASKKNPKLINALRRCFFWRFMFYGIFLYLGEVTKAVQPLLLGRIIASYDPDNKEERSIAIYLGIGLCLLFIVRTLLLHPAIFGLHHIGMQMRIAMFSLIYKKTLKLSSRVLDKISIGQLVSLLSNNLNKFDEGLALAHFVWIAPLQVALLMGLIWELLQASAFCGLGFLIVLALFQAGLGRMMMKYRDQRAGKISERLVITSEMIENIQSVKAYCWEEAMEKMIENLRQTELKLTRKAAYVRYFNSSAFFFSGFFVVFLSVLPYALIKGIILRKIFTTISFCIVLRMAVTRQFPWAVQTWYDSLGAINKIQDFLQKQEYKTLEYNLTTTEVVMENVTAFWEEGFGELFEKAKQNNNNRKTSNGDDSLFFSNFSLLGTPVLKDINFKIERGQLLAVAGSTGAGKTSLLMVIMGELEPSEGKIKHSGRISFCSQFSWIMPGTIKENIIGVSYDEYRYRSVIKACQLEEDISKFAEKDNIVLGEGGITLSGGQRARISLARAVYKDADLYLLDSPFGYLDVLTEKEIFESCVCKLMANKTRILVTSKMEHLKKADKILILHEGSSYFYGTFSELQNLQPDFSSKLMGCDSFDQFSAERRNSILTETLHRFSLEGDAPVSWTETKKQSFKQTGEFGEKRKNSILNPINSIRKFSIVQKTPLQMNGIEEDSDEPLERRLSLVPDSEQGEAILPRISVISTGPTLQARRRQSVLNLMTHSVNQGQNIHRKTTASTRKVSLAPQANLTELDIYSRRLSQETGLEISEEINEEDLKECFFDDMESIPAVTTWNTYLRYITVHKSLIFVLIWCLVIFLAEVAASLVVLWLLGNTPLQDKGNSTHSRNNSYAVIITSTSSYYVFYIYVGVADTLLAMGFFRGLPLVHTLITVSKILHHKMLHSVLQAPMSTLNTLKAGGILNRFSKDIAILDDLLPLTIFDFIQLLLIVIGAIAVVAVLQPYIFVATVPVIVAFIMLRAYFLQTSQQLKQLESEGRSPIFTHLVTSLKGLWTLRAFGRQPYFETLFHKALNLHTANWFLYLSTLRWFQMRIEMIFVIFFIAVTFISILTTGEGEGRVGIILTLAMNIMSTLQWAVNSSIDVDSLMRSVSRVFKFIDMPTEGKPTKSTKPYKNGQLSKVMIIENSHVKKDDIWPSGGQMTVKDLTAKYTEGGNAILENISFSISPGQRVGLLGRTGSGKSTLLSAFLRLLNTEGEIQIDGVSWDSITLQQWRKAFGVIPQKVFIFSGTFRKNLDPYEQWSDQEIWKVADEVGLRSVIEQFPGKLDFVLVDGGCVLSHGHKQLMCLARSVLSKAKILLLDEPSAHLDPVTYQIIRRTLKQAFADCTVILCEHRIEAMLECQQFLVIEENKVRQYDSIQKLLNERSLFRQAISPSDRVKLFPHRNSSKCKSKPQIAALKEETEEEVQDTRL

SMILES	DSLS 3D (100 μM ΔT) (NBD1)	TECC (AUC, 10 μM) (CFTR)
Cn1nc2nc1-c1cc(ccc1F)Oc1c(F)cc3[nH]ccc3c1CCS(=O)(=O)CC(C)(C)COCC2(C)c1cccc(CC(=O)O)c1 (stereo not drawn) [Compound 69, 2-[3-(22,28-Difluoro-3,6,10,10-tetramethyl-12,12-dioxo-8,24-dioxa-12λ6-thia-3,4,19,30-tetrazapentacyclo[23.3.1.12,5.015,23.016,20]triaconta-1(29),2(30),4,15,17,20,22,25,27-nonaen-6-yl)phenyl]acetic Acid]	C (a value greater than 10 °C and less than or equal to 25 °C is marked “C”)	A (a TECC value less than 12 is marked “A”)
CC1(C)CCCC(c2cccc(CCC(=O)O)c2)n2cc(Cl)c(n2)-c2cc(ccc2F)Oc2c(F)cc3[nH]ccc3c2CCS(=O)(=O)C1 (stereo not drawn) [Compound 70, 3-[3-(3-Chloro-22,28-difluoro-10,10-dimethyl-12,12-dioxo-24-oxa-12λ6-thia-5,19,30-triazapentacyclo[23.3.1.12,5.015,23.016,20]triaconta-1(29),2(30),3,15,17,20,22,25,27-nonaen-6-yl)phenyl]propanoic Acid]	C (a value greater than 10 °C and less than or equal to 25 °C is marked “C”)	A (a TECC value less than 12 is marked “A”)
CC1(C)CCCC(c2cccc(CCC(=O)O)c2)n2ncc(Cl)c2-c2cc(ccc2F)Oc2c(F)cc3[nH]ccc3c2CCS(=O)(=O)C1 (stereo not drawn) [Compound 71, 3-[3-(3-Chloro-23,29-difluoro-11,11-dimethyl-13,13-dioxo-25-oxa-13λ6-thia-5,6,20-triazapentacyclo[24.3.1.02,6.016,24.017,21]triaconta-1(30),2,4,16,18,21,23,26,28-nonaen-7-yl)phenyl]propanoic Acid]	C (a value greater than 10 °C and less than or equal to 25 °C is marked “C”)	A (a TECC value less than 12 is marked “A”)
CC(C)n1nc2nc1C(C)(c1cccc(CCC(=O)O)c1)CCCC(C)(C)CS(=O)(=O)CCc1c(c(F)cc3[nH]ccc13)Oc1ccc(F)c-2c1 (stereo not drawn) [Compound 74, 3-[3-(22,28-Difluoro-4-isopropyl-6,10,10-trimethyl-12,12-dioxo-24-oxa-12λ6-thia-3,4,19,30-tetrazapentacyclo-[23.3.1.12,5.015,23.016,20]triaconta-1(29),2,5(30),15,17,20,22,25,27-nonaen-6-yl)phenyl]propanoic acid]	C (a value greater than 10 °C and less than or equal to 25 °C is marked “C”)	A (a TECC value less than 12 is marked “A”)
CC(C)n1nc2nc1-c1cc(ccc1F)Oc1c(F)cc3[nH]ccc3c1CCS(=O)(=O)CC(C)(C)CCCC2(C)c1cccc(CCC(=O)O)c1 (stereo not drawn) [Compound 75, 3-[3-(22,28-difluoro-3-isopropyl-6,10,10-trimethyl-12,12-dioxo-24-oxa-12λ6-thia-3,4,19,30-tetrazapentacyclo-[23.3.1.12,5.015,23.016,20]triaconta-1(29),2(30),4,15,17,20,22,25,27-nonaen-6-yl)phenyl]propanoic Acid]	C (a value greater than 10 °C and less than or equal to 25 °C is marked “C”)	A (a TECC value less than 12 is marked “A”)
Cc1cn2nc1-c1cc(ccc1F)Oc1c(F)cc3[nH]ccc3c1CCS(=O)(=O)CC(C)(C)COCCC2c1cccc(CCC(=O)O)c1 (stereo not drawn) [Compound 76, 3-[3-(23,29-Difluoro-3,11,11-trimethyl-13,13-dioxo-9,25-dioxa-13λ6-thia-5,20,31-triazapentacyclo[24.3.1.12,5.016,24.017,21]hentriaconta-1(30),2(31),3,16,18,21,23,26,28-nonaen-6-yl)phenyl]propanoic Acid]	C (a value greater than 10 °C and less than or equal to 25 °C is marked “C”)	A (a TECC value less than 12 is marked “A”)
Cn1cc2nc1-c1cc(ccc1F)Oc1c(F)cc3[nH]ccc3c1CCS(=O)(=O)CC(C)(C)CCCC2(C)c1cccc(CCC(=O)O)c1 (stereo not drawn) [Compound 77, 3-[3-(22,28-Difluoro-3,6,10,10-tetramethyl-12,12-dioxo-24-oxa-12λ6-thia-3,19,30-triazapentacyclo[23.3.1.12,5.015,23.016,20]triaconta-1(29),2(30),4,15,17,20,22,25,27-nonaen-6-yl)phenyl]propanoic Acid]	C (a value greater than 10 °C and less than or equal to 25 °C is marked “C”)	A (a TECC value less than 12 is marked “A”)
Cn1nc2nc1-c1cc(ccc1F)Oc1c(F)cc3[nH]ccc3c1CCS(=O)(=O)CC(C)(C)OCCC2(C)c1cccc(CCO)c1 (stereo not drawn) [Compound 78, 2-[3-(22,28-Difluoro-3,6,10,10-tetramethyl-12,12-dioxo-9,24-dioxa-12lambda6-thia-3,4,19,30-tetrazapentacyclo-[23.3.1.12,5.015,23.016,20]triaconta-1(29),2(30),4,15,17,20,22,25,27-nonaen-6-yl)phenyl]-ethanol]	B (a value above 5 °C and less than or equal to 10 °C is marked “B”)	A (a TECC value less than 12 is marked “A”)
CCOC(=O)CCc1cccc(C2CCS(=O)(=O)CCS(=O)(=O)CCc3c(c(F)cc4[nH]ccc34)Oc3ccc(F)c(c3)-c3ccn2n3)c1 (stereo not drawn) [Compound 92, Ethyl 3-[3-(22,28-difluoro-9,9,12,12-tetraoxo-24-oxa-9lambda6,12lambda6-dithia-5,19,30-triazapentacyclo[23.3.1.12,5.015,23.016,20]triaconta-1(29),2(30),3,15,17,20,22,25,27-nonaen-6-yl)phenyl]propanoate]	A (an ΔTagg value less than or equal to 5 °C is marked “A”)	A (a TECC value less than 12 is marked “A”)
Cn1nc2nc1-c1cc(ccc1F)Oc1c(F)cc3[nH]ccc3c1Cc1ccnn1CCS(=O)(=O)CCC2(C)c1cccc(CCC(=O)O)c1 (stereo not drawn) [Compound 99, 3-[3-(25,31-Difluoro-3,6-dimethyl-9,9-dioxo-27-oxa-9λ6-thia-3,4,12,13,22,33-hexazahexacyclo[26.3.1.12,5.012,16.018,26.019,23]tritriaconta-1(32),2(33),4,13,15,18,20,23,25,28,30-undecaen-6-yl)phenyl]propanoic Acid]	A (an ΔTagg value less than or equal to 5 °C is marked “A”)	A (a TECC value less than 12 is marked “A”)
Cn1nc2nc1-c1cc(ccc1F)Oc1c(F)cc3[nH]ccc3c1CCS(=O)(=O)CC(C)(C)CCCC2(CO)c1cccc(CCC(=O)O)c1 (stereo not drawn) [Compound 103, 3-[3-[22,28-Difluoro-6-(hydroxymethyl)-3,10,10-trimethyl-12,12-dioxo-24-oxa-12lambda6-thia-3,4,19,30-tetrazapentacyclo[23.3.1.12,5.015,23.016,20]triaconta-1(29),2(30),4,15,17,20,22,25,27-nonaen-6-yl]phenyl]propanoic Acid]	C (a value greater than 10 °C and less than or equal to 25 °C is marked “C”)	A (a TECC value less than 12 is marked “A”)
Cn1nc2nc1-c1cc(ccc1F)Oc1c(F)cc3[nH]ccc3c1CCS(=O)(=O)CC(C)(C)CCCC2(C#N)c1cccc(CCC(=O)O)c1 (stereo not drawn) [Compound 104, 3-[3-(6-Cyano-22,28-difluoro-3,10,10-trimethyl-12,12-dioxo-24-oxa-12lambda6-thia-3,4,19,30-tetrazapentacyclo[23.3.1.12,5.015,23.016,20]triaconta-1(29),2(30),4,15,17,20,22,25,27-nonaen-6-yl)phenyl]propanoic Acid]	C (a value greater than 10 °C and less than or equal to 25 °C is marked “C”)	C (a value between 20 and 80 is marked “C”)
Cn1nc2nc1-c1cc(ccc1F)Oc1c(F)cc3[nH]ccc3c1CCS(=O)(=O)CC(C)(C)CCCC2(CF)c1cccc(CCC(=O)O)c1 (stereo not drawn) [Compound 105, 3-[3-[22,28-Difluoro-6-(fluoromethyl)-3,10,10-trimethyl-12,12-dioxo-24-oxa-12lambda6-thia-3,4,19,30-tetrazapentacyclo-[23.3.1.12,5.015,23.016,20]triaconta-1(29),2(30),4,15,17,20,22,25,27-nonaen-6-yl]phenyl]propanoic acid]	B (a value above 5 °C and less than or equal to 10 °C is marked “B”)	A (a TECC value less than 12 is marked “A”)
Cn1nc2nc1-c1cc(ccc1F)Oc1c(F)cc3[nH]ccc3c1CCS(=O)(=O)CC(C)(C)C(F)(F)CCC2(C)c1cccc(CCC(=O)O)c1 (stereo not drawn) [Compound 106, 3-[3-(9,9,22,28-Tetrafluoro-3,6,10,10-tetramethyl-12,12-dioxo-24-oxa-12lambda6-thia-3,4,19,30-tetrazapentacyclo[23.3.1.12,5.015,23.016,20]triaconta-1(29),2(30),4,15,17,20,22,25,27-nonaen-6-yl)phenyl]propanoic Acid]	C (a value greater than 10 °C and less than or equal to 25 °C is marked “C”)	A (a TECC value less than 12 is marked “A”)
Cn1nc2nc1-c1cc(ccc1F)Oc1c(F)cc3[nH]ccc3c1CCS(=O)(=O)CC(C)(C)/C(F)=C/CC2(C)c1cccc(CCC(=O)O)c1 (stereo not drawn) [Compound 107, 3-[3-[(8Z)-9,22,28-Trifluoro-3,6,10,10-tetramethyl-12,12-dioxo-24-oxa-12lambda6-thia-3,4,19,30-tetrazapentacyclo-[23.3.1.12,5.015,23.016,20]triaconta-1(29),2(30),4,8,15,17,20,22,25,27-decaen-6-yl]phenyl]propanoic acid]	C (a value greater than 10 °C and less than or equal to 25 °C is marked “C”)	A (a TECC value less than 12 is marked “A”)
